Among the data in ChEMBL document CHEMBL1141312, “Induction of apoptosis by diterpenes from the soft coral Xenia elongata” (2007) are Activity values, retold here.

Active and inactive are the calls of the source. No cut-off for these calls is given here.

Test [1] deals with W2. Briefly: (§1) Induction of apoptosis in mouse W2 cells assessed as cell death after 48 hrs by MTT assay. Format: functional. For orientation: Tetrazolium dyes change colour on reduction, which living cells bring about.
Test [2] is described as follows: as §1. Format: functional.
Test [3] is described as follows: Induction of apoptosis in apoptosis-resistant mouse D3 cells assessed as cell growth after 48 hrs by MTT assay. Format: functional.
For test [4], the system named is D3. Description: Induction of apoptosis in mouse apoptosis-resistant D3 cells assessed as cell growth at 12 uM after 48 hrs by MTT assay. Format: functional, cell-based.
Test [5] deals with D3. Briefly: Induction of apoptosis in mouse apoptosis-resistant D3 cells assessed as cell growth at 12 uM after 72 hrs by MTT assay. Format: functional, cell-based.

Regarding `C=C1CC/C=C(\C)CC[C@H](/C(=C/C=C/C(C)(C)O)COC(C)=O)[C@H]1C(=O)OC`, the result in test [1] was Active. Take `C=C1CC/C=C(\C)CC[C@H](/C(=C\C=C\C(C)(C)O)COC(C)=O)[C@H]1C(OC)OC`: the outcome in test [1] was Active. With `C=C1CC/C=C(\C)CC[C@@H]2C(C(CC3OC3(C)C)OC(C)=O)=CO[C@H](OC(C)=O)[C@@H]12` (some centres not stated), the Activity in test [2] was found to be 50%; in test [3], 61%. For the same compound, the outcome in test [4] and in test [5] was Active. As for `C=C1CC/C=C(\C)CC[C@H](/C(=C\CC=C(C)C)COC(C)=O)[C@H]1C(=O)OC`, the outcome in test [1] was Active.
